From patent US20040115236A1, “Devices and methods for management of inflammation” (priority 2000, published 2004)

Columns and labels:
[1] = cited from earlier work
[2] = solubility in sterile distilled water; format: physicochemical; settings: thermodynamic from solid, read-out: maximum solubility
Source text: Sodium cromoglycate may be delivered from an implanted pump without the use of a catheter. For example, a DUROS® osmotic pump could be used. […] The formulation of sodium cromoglycate may then be loaded into a DUROS® pump under aseptic conditions. The pump is implanted in a subject, for instance subcutaneously in the upper arm, under local anesthetic and the drug would be released therefrom into the body of the subject. [formula]

[3] = test system: exercise-induced bronchoconstriction; settings: inhaled administration, plasma concentrations of 4-6 ng/ml; cited from earlier work

For `O=C(O)c1cc(=O)c2c(OCC(O)COc3cccc4oc(C(=O)O)cc(=O)c34)cccc2o1` [sodium cromoglycate, Sodium cromoglycate], the “bioavailability, inhaled” value ([1]; inhaled) is given as 7.5%, the oral bioavailability ([1]; oral) is given as “less than 1%” and the solubility [2] is given as about 120 mg/mL. The “inhibition of exercise-induced bronchoconstriction” value [3] was 66%.
